Measured values published in article PMC13326014 (Advanced Science, 2026).
Read-outs that look alike come from different tables or passages of the source. Peptide text beside a SMILES is read from it.

Tests used:
INS‐1E‐hIAPP cells = assay: ICC of Antp‐QBP1 uptake in INS‐1E‐hIAPP cells; format: cell-based, rat; conditions: Antp‐QBP1 10 µM, 48 h
Experimental: (§1) Rat insulinoma–derived pancreatic β‐cell lines (INS‐1E, INS‐1E‐hIAPP, and INS‐1E‐Ct) were kindly provided by Dr. Anna Novials (IDIBAPS, Barcelona) and characterized as previously described. INS‐1E‐hIAPP cells, which stably express human IAPP, were used as an overexpression model, whereas INS‐1E‐Ct cells transfected with an empty vector served as controls.
(§2) Cells were seeded in 24‐well plates (Corning, cat. #3526) on 12 mm coverslips pre‐treated with 1 mg/mL poly‐D‐lysine (Merck, cat. #P2636) in borate buffer (pH 8.0) at a density of 200,000 cells/mL. […] Primary antibodies against hIAPP (rabbit anti‐hIAPP, 1:400; Sigma‐Aldrich), biotin (goat anti‐biotin, 1:200; Invitrogen, cat. # 31852), oligomers (A11, 1:400, Invitrogen, cat. # AHB0052) and fibrils (OC, 1:200, Millipore, cat. # AB2286) were applied overnight at 4°C. Fluorophore‐conjugated secondary antibodies (Invitrogen) were added for 1 h at RT in darkness, followed by DAPI nuclear staining for 15 min. Coverslips were mounted with ProLong Gold (Life Technologies) and imaged using either a Leica DMI 6000 fluorescence microscope or a Leica Stellaris 8 stimulated emission depletion (STED) super‐resolution microscope, both equipped with a 40× oil‐immersion objective.

INS‐1E β‐cells [1] = assay: CellTiter‐Glo ATP viability, exogenous hIAPP oligomers; conditions: 48 h, 16.7 mM glucose
Experimental: Dried hIAPP or rIAPP peptide (0.5 mg) was reconstituted in 10 mM phosphate‐buffered saline (PBS, pH 7.4) with 2% DMSO and 2 mM sodium azide to a final concentration of 300 µM. rIAPP was included as a non‐amyloidogenic control peptide. After centrifugation at 16 000 x g for 50 min at 4°C to remove preformed aggregates, the supernatant (designated as “time zero”)—primarily populated by monomers—was used to initiate amyloidogenesis. Samples were vortexed and incubated at 25°C for 7 days without agitation to allow gradual formation of oligomers and fibrils. […] Aliquots were collected at different time points for biochemical characterization and β‐cells assays. […]
The fusion peptide was N‐terminally biotinylated and the two peptides were separated by two glycine residues as flexible linkers to minimize steric hindrance: Biotin‐[…]. • – Cell culture . […] Viability was assessed using the CellTiter‐Glo Luminescent Cell Viability Assay (Promega, Madison, WI, USA), which quantifies ATP content as an indicator of metabolically active cells, and AlamarBlue (Invitrogen, Thermo Fisher), based on the reduction of resazurin to the fluorescent product resorufin in metabolically active cells, following the manufacturer's instructions. Luminescence (CellTiter‐Glo) and fluorescence (AlamarBlue; Ex 560 nm / Em 590 nm) were recorded using a FLUOstar Omega microplate reader (BMG LABTECH). […]

INS‐1E‐Ct cells = assay: CellTiter‐Glo ATP viability, empty‐vector control cells; format: cell-based, rat; conditions: Antp‐QBP1 5–20 µM, 48 h
From the text: as §1
• – hIAPP overexpression conditions .

INS‐1E β‐cells [2] = assay: AlamarBlue metabolic activity, exogenous hIAPP oligomers
Experimental: Dried hIAPP or rIAPP peptide (0.5 mg) was reconstituted in 10 mM phosphate‐buffered saline (PBS, pH 7.4) with 2% DMSO and 2 mM sodium azide to a final concentration of 300 µM. rIAPP was included as a non‐amyloidogenic control peptide. After centrifugation at 16 000 x g for 50 min at 4°C to remove preformed aggregates, the supernatant (designated as “time zero”)—primarily populated by monomers—was used to initiate amyloidogenesis. Samples were vortexed and incubated at 25°C for 7 days without agitation to allow gradual formation of oligomers and fibrils. […] Aliquots were collected at different time points for biochemical characterization and β‐cells assays. For β‐cell assays involving extracellular hIAPP oligomers, samples were sonicated before use to disrupt early fibrils and enrich for oligomeric species.
The fusion peptide was N‐terminally biotinylated and the two peptides were separated by two glycine residues as flexible linkers to minimize steric hindrance: Biotin‐[…]. • – Cell culture . […] Viability was assessed using the CellTiter‐Glo Luminescent Cell Viability Assay (Promega, Madison, WI, USA), which quantifies ATP content as an indicator of metabolically active cells, and AlamarBlue (Invitrogen, Thermo Fisher), based on the reduction of resazurin to the fluorescent product resorufin in metabolically active cells, following the manufacturer's instructions. Luminescence (CellTiter‐Glo) and fluorescence (AlamarBlue; Ex 560 nm / Em 590 nm) were recorded using a FLUOstar Omega microplate reader (BMG LABTECH). Morphological changes were monitored by phase‐contrast microscopy (Leitz DM IRB, Leica, Germany) equipped with a Peltier temperature controller (Linkam, UK) set to 37°C and a Leica K5 camera. Images from at least three fields per condition were acquired at 10× and 20× magnification and analyzed with Leica LAS AF Lite software.

INS‐1E β‐cells [3] = assay: ICC of Antp‐QBP1 uptake (anti‐biotin) in INS‐1E β‐cells; format: cell-based, rat; conditions: 48 h; for anti‐biotin (Red‐647) fluorescence intensity per cell: uptake by ICC
Experimental: as §2
ThT‐stained and ICC samples were imaged using a Leica Stellaris 8 STED super‐resolution confocal microscope (Leica Microsystems, Germany). For ThT imaging, samples in Ibidi μ‐Slide 4 Well ibiTreat coverslips were excited at 488 nm and emission was collected between 509–580 nm. For ICC, fluorophores were excited at 405 nm (DAPI; 420–480 nm, HyD S1), 488 nm (Alexa Fluor 488/FITC; 500–550 nm, HyD S2) and 653 nm (Alexa Fluor 647; 665–750 nm, HyD X3), all acquired sequentially in counting mode to prevent spectral overlap. […] Z‐stacks were collected in optimized mode to generate 3D reconstructions of ThT fluorescence and ICC labeling. Image processing and quantitative analysis were conducted using ImageJ/Fiji (NIH, USA). Specifically, a custom Fiji macro based on the “Find Maxima” algorithm was implemented to detect local intensity peaks across the selected fluorescence channels. Fluorescence intensity per cell (a.u.) was calculated as the total signal per field divided by the number of DAPI‐positive nuclei, and the number of fluorescence spots per cell was defined as total local maxima per field normalized to nuclei count. […]

Rin1056A β‐cells = conditions: cited from earlier work
[4] = tested on: hIAPP‐induced cytotoxicity; conditions: cited from earlier work
hIAPP = molecular target: T1, hIAPP (Homo sapiens, UniProt P10997); assay: 1D 1H NMR loss of hIAPP signal (oligomerization kinetics); format: biochemical; conditions: 50 µM hIAPP, three‐fold excess (150 µM) inhibitor, PBS, 37°C
T1 construct: hIAPP (1–37; cat. # RP11278); purchased GenScript (Netherlands) RP11278; host or cells: chemical synthesis
T1 sequence (P10997 34-70): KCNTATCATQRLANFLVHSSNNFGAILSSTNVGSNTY
Experimental: • – hIAPP/QBP1 interaction experiments. 1D ^1H and 2D ^1H‐^1H total correlation spectroscopy (TOCSY) (mixing time = 60 ms) and 2D ^1H‐^1H nuclear Overhauser effect spectroscopy (NOESY) (mixing times = 80 and 250 ms) spectra were recorded at 10°C in 90% H2O/ 10% D2O with 1 mM K2HPO4 and 1 mM sodium acetate buffer (pH 5.5) on 100 µM hIAPP (pre‐monomerized in a small volume of hexadeuterated DMSO) on a Bruker 800 MHz (^1H) spectrometer equipped with a ^1H, ^13C, ^15N cryoprobe, Neo console and z‐gradients. These conditions were chosen because they were previously reported to greatly slow the aggregation of hIAPP, affording time to allow the spectra to be recorded. The solutions also contained 100 µM DSS as the internal chemical shift reference. Spectra were assigned with the aid of the program POKY [62], and the assignments have been deposited in the BMRB database; with access code = 53405. […] The spectra were then analyzed for changes which could reveal atomic‐level details on the interaction between hIAPP and QBP1. • – hIAPP aggregation experiments. A second set of NMR experiments were performed in PBS (90% H2O/ 10% D2O) at 37°C. […] These experiments were performed on a Bruker 600 MHz (^1H) spectrometer equipped with a ^1H, ^13C, ^15N, ^31P cryoprobe, Neo console, and z‐gradients. The final sample pH was verified in situ based on the phosphate ^3 ^1P chemical shift.

[5] = peptide alone, 48 h, Alamar Blue HS

CC[C@H](C)[C@H](NC(=O)CNC(=O)[C@@H]1CCCN1C(=O)[C@H](Cc1c[nH]c2ccccc12)NC(=O)[C@H](Cc1c[nH]c2ccccc12)NC(=O)[C@H](CCCCN)NC(=O)[C@H](Cc1c[nH]c2ccccc12)NC(=O)CNC(=O)CNC(=O)[C@H](CCCCN)NC(=O)[C@H](CCCCN)NC(=O)[C@H](Cc1c[nH]c2ccccc12)NC(=O)[C@H](CCCCN)NC(=O)[C@H](CCSC)NC(=O)[C@H](CCCNC(=N)N)NC(=O)[C@H](CCCNC(=N)N)NC(=O)[C@H](CC(N)=O)NC(=O)[C@H](CCC(N)=O)NC(=O)[C@H](Cc1ccccc1)NC(=O)[C@H](Cc1c[nH]c2ccccc12)NC(=O)[C@@H](NC(=O)[C@H](CCCCN)NC(=O)[C@@H](NC(=O)[C@H](CCC(N)=O)NC(=O)[C@H](CCCNC(=N)N)NC(=O)CCCC[C@@H]1SC[C@@H]2NC(=O)N[C@@H]21)[C@@H](C)CC)[C@@H](C)CC)C(=O)N[C@@H](Cc1ccccc1)C(=O)O [Antp‐QBP1]
intracellular delivery by immunostaining (INS‐1E‐hIAPP cells): efficient intracellular delivery | effect of peptide alone on ATP levels (INS‐1E β‐cells [1]): did not alter ATP levels | effect on ATP levels in control (Ct) cells (INS‐1E‐Ct cells): did not alter ATP levels | effect of peptide alone on metabolic activity (INS‐1E β‐cells [2]; [5]): no significant effect | number of intracellular Red‐647 fluorescent spots per cell vs hIAPP alone (INS‐1E β‐cells [3]; 10 µM Antp‐QBP1 alone or with 10 µM hIAPP): significantly increased | anti‐biotin (Red‐647) fluorescence intensity per cell (INS‐1E β‐cells [3]; 10 µM Antp‐QBP1 alone): 400–600 a.u./cell | anti‐biotin (Red‐647) fluorescence intensity per cell (INS‐1E β‐cells [3]; 10 µM Antp‐QBP1 with 10 µM hIAPP oligomers): ~200 a.u./cell

CC[C@H](C)[C@H](NC(=O)CNC(=O)[C@@H]1CCCN1C(=O)[C@H](Cc1c[nH]c2ccccc12)NC(=O)[C@H](Cc1c[nH]c2ccccc12)NC(=O)[C@H](CCCCN)NC(=O)[C@H](Cc1c[nH]c2ccccc12)NC(C)=O)C(=O)N[C@@H](Cc1ccccc1)C(N)=O [QBP1] (Ac-WKWWPGIF-NH2)
effect of peptide alone on metabolic activity (INS‐1E β‐cells [2]; [5]): no significant effect

CC(C)C[C@H](NC(=O)[C@H](CC(N)=O)NC(=O)[C@H](CC(N)=O)NC(=O)[C@H](CO)NC(=O)[C@H](CO)NC(=O)[C@H](CCCNC(=N)N)NC(=O)[C@@H](NC(=O)[C@H](CC(C)C)NC(=O)[C@H](Cc1ccccc1)NC(=O)[C@H](CC(N)=O)NC(=O)[C@H](C)NC(=O)[C@H](CC(C)C)NC(=O)[C@H](CCCNC(=N)N)NC(=O)[C@H](CCC(N)=O)NC(=O)[C@@H](NC(=O)[C@H](C)NC(=O)[C@@H]1CSSC[C@H](NC(=O)[C@@H](N)CCCCN)C(=O)N[C@@H](CC(N)=O)C(=O)N[C@@H]([C@@H](C)O)C(=O)N[C@@H](C)C(=O)N[C@@H]([C@@H](C)O)C(=O)N1)[C@@H](C)O)C(C)C)C(=O)NCC(=O)N1CCC[C@H]1C(=O)N[C@H](C(=O)N[C@@H](CC(C)C)C(=O)N1CCC[C@H]1C(=O)N1CCC[C@H]1C(=O)N[C@H](C(=O)N[C@@H](CC(N)=O)C(=O)N[C@H](C(=O)NCC(=O)N[C@@H](CO)C(=O)N[C@@H](CC(N)=O)C(=O)N[C@H](C(=O)N[C@@H](Cc1ccc(O)cc1)C(N)=O)[C@@H](C)O)C(C)C)[C@@H](C)O)C(C)C [rIAPP, reference compound]
effect of peptide alone on metabolic activity (INS‐1E β‐cells [2]): did not affect metabolic activity

D‐ANFLVH
molar excess relative to IAPP required to prevent toxicity (Rin1056A β‐cells): ten‐fold molar excess

FLPNF
concentration required to reduce hIAPP‐induced cytotoxicity [4]: approximately 200 µM

epigallocatechin‐3‐gallate [EGCG]
slowing of the rate of hIAPP oligomerization (NMR signal loss) (hIAPP): ~50%
